According to US20240140970A1, “A […], AND PREPARATION METHOD AND USE THEREOF” (ASCENTAWITS PHARMACEUTICALS, LTD., priority 2021, published 2024):
“And” between values parts separate entries of the source, which are not always exact repeats. Identical values can stand only once.

Assay: Experimental table stability of AST-2660 in human urine at room temperature (LC-MS/MS)
Assay type: in vitro ADME
Details: for RE (%) vs nominal / AST-2660 concentration, Mean value / AST-2660 concentration, single replicates: human urine, room temperature
Protocol: The detection method established in example 6 was used to detect the content of AST-2660 in the human urine to be tested.
Matrix: the mixed normal human urine containing an additive Na2HPO4·12H2O. • a: the internal standard working solution: AST-2660-D8 was taken, dissolved with methanol, and diluted to prepare a solution containing about 100 ng per 1 ml. • b: the solution to be tested (no internal standard compound was added to the solution to be tested at this time): it was obtained by taking a blood sample to be tested. • c: the standard working solution (no internal standard compound was added to the standard working solution at this time): an appropriate amount of AST-2660 was taken and accurately weighed, dissolved with methanol and diluted to prepare a solution containing about 1.0 mg per 1 ml, which was used as the standard working stock solution. An appropriate amount of the standard working stock solution was taken, added with the matrix and diluted to prepare standard working solutions with different concentrations containing about 200 ng, 160 ng, 100 ng, 50 ng, 10 ng, 2.0 ng, 1.0 ng and 0.5 ng per 1 ml, respectively. (The solution was stored at −70° C.) • d: the quality control sample solution: an appropriate amount of AST-2660 was taken and accurately weighed, dissolved with methanol, and diluted to prepare a solution containing about 10 μg per 1 ml, which was used as the quality control working stock solution. An appropriate amount of the quality control working stock solution was taken, and added with the matrix to prepare quality control working solutions with different concentrations containing about 150 ng, 60 ng, 15 ng, 1.5 ng and 0.5 ng per 1 ml. (The solution was stored at −70° C.)
The solution to be tested, the standard working solution and the quality control sample solution were thawed at room temperature and mixed uniformly. 100 μl of the above solution was respectively taken, added with 20 μl of the internal standard and 500 μl of methanol, and vortexed for 3 minutes to mix uniformly, and then centrifuged for 30 minutes at 2143 rcf. 450 μl of supernatant was taken, and then centrifuged for 10 minutes in a 96-well plate at 2143 rcf. It was obtained by taking 300 μl of supernatant.
Liquid phase conditions: A SHARC 1, 3 μm, 2.1*50 mm or chromatograph column with equivalent performance was used; methanol solution containing low content of ammonium acetate was used; mobile phase B was acetonitrile; the gradient elution was performed according to the following table; column temperature: 20° C.; injection volume: 5 μl.
Mass spectrometric conditions: electrospray ion source with negative ion scanning mode; spray potential: −4500 V; ion source temperature: 500° C.; collision energy (CE): −22 eV; declustering potential (DP): −55V; entrance potential (EP): −10V; collision chamber exit potential (CXP): −16V; dwell time: 100 ms; high purity nitrogen was used for all gases; AST-2660 ions pairs: m/z 147.0→m/z 62.9; the internal standard AST-2660-D8 ion pairs: m/z 155.0→m/z 62.9.
The AST-2660 standard working solution, blank sample, zero concentration sample, solution to be tested and quality control working solution with different concentrations after extraction were respectively taken and injected into LC-MS/MS for detection.
Calculation results: the relationship function y=f (x) of the ratio of the peak area of AST-2660 to that of the internal standard was obtained from AST-2660 standard working solutions with different concentrations. The ratio of the peak area of AST-2660 to that of the internal standard was determined from the solution to be tested after extraction, and substituted into the relationship function y=f (x) to calculate the concentration of the metabolite II in the solution to be tested.

[1] = QC1 nominal 1.50 ng/ml, 4 hours
[2] = QC1 nominal 1.50 ng/ml, 24 hours
[3] = QC4 nominal 150 ng/ml, 24 hours

Structure (SMILES): O=P([O-])(N1CC1)N1CC1.[Na+] [AST-2660]
- RE (accuracy), range over three concentration levels (human urine at room temperature for 4 hours, 1.5, 150 and 1500 ng/ml): RE: −8.5% to 4.5%
- RE (%) vs nominal (DilQC (10-fold dilution) nominal 1500 ng/ml, 0 hour): −5.7%
- RE (%) vs nominal (DilQC (10-fold dilution) nominal 1500 ng/ml, 4 hours): −5.7%
- RE (%) vs nominal (DilQC (10-fold dilution) nominal 1500 ng/ml, 24 hours): −13.2%
- AST-2660 concentration, Mean value (QC1 nominal 1.50 ng/ml, 0 hour): 1.37 ng/mL
- AST-2660 concentration, single replicates (QC1 nominal 1.50 ng/ml, 0 hour): 1.44 ng/mL
- RE (%) vs nominal (QC1 nominal 1.50 ng/ml, 0 hour): −8.5%
- AST-2660 concentration, Mean value [1]: 1.45 ng/mL
- AST-2660 concentration, single replicates [1]: 1.51 ng/mL
- RE (%) vs nominal [1]: −3.7%
- AST-2660 concentration, Mean value [2]: 1.90 ng/mL
- AST-2660 concentration, single replicates [2]: 2.07 ng/mL
- RE (%) vs nominal [2]: 26.7%
- AST-2660 concentration, single replicates (QC4 nominal 150 ng/ml, 0 hour): 141 ng/mL and 144 ng/mL and 142 ng/mL and 146 ng/mL
- RE (%) vs nominal (QC4 nominal 150 ng/ml, 0 hour): −4.5%
- AST-2660 concentration, single replicates (QC4 nominal 150 ng/ml, 4 hours): 156 ng/mL and 154 ng/mL and 159 ng/mL
- RE (%) vs nominal (QC4 nominal 150 ng/ml, 4 hours): 4.5%
- AST-2660 concentration, single replicates [3]: 149 ng/ml (2×) and 154 ng/ml
- RE (%) vs nominal [3]: 0.8%
- stability (in words) (untreated human urine samples, 24 hours at room temperature): stable
